Measured values reported in patent publication US20230372337A1, “Combination Therapy Comprising an AXL Inhibitor” (BERGENBIO ASA, priority 2020, published 2023).
Read-outs that look alike come from different tables or passages of the source.

Columns and labels:
LL2 cells [1] = test: qRTPCR of IFN related genes in Lewis lung carcinoma (LL2) cells in vitro (Example 4); assay type: cell-based, mouse
Description: (§1) 4T1 cells (ATCC, CRL-2539) were cultured in RPMI-1640 (Sigma, Cat. #R8758) supplemented with 10% fetal bovine serum (FBS), L-glutamine (4 mM), streptomycin (5 μg/ml) and penicillin (5 U/ml). […] Lewis lung carcinoma cells LL/2 (LLC1) (ATCC, CRL-1642™) were cultured in Dulbecco's Modified Eagle's Medium ATCC® 30-2002™ (4 mM L-glutamine, 4500 mg/L glucose, 1 mM sodium pyruvate, and 1500 mg/L sodium bicarbonate).
RNA was extracted from snap frozen tumors using the RNEasy Microarray Tissue Mini kit from Qiagen following the manufacturer's instructions. As tumors contained Doxorubicin and powderizing them could expose personnel to harmful substances, the RNA was extracted in a closed system using the GentleMACS dissociator and M Tubes. Purity and concentration of RNA was measured using Nanodrop. RT^2 Profiler™ PCR Array. cDNA was synthesized from RNA using the RT^2 First Strand kit (Qiagen) according to the manufacturer's instructions. cDNA was mixed with RT^2 SYBR Green Mastermix (Qiagen) and loaded into RT^2 Profiler™ PCR Array Mouse Type I Interferon Response or RT^2 Profiler™ PCR Array Mouse Epithelial to Mesenchymal Transition (EMT), analyzing the expression of the genes listed in Table 17. The plates were analyzed using Light Cycler 480 (Roche) and data were analyzed using the Qiagen Data Analysis Centre and Graph Pad (Prism).
Chemotherapeutic agents commonly used to treat lung cancer patients were evaluated for effects on the IFN response. Cisplatin, navelbine and docetaxel were tested in vitro in combination with bemcentinib.
(§2) The IC50 of the different drugs were calculated by resazurin viability assay. […] The cells were treated for 48 hours.

LL2 cells [2] = test: Resazurin viability assay of LL2 cells (Example 4); assay type: cell-based, mouse
Description: as §1, §2

[3] = system: type I IFN related genes (ISG); test: RT2 Profiler PCR Array Mouse Type I Interferon Response on 4T1 tumors (Example 2); assay type: in vivo, Balb/c mice
From the text: Bemcentinib was given as a loading dose for 3 days (11-13 after tumor implantation) and then as a standard dose until sacrifice.
9 mice have been excluded of the study because of the absence of tumor on day 11. On day 11 post implantation half of the cages were placed in the bemcentinib treated group and the other half in the […]. The average tumor volume when bemcentinib treatment was initiated (day 11) was 54.99 mm^3. […] The tumor volumes when bemcentinib treatment was initiated and the day of randomization are recorded in table 8. The intra tumomoral injection of doxorubicin and sting agonists was adjusted to the tumor volume.
Doxorubicin is provided in a 2 mg/ml solution. As it is technically challenging to inject 50 ul liquid into tumors measuring <100 mm^3, the total dosing volume was calculated based on the following formula: V=50 ul×(TV/120). This is done to minimize variability due to leakage during intratumoral injection. For the 1 mg/kg dose (E,F) Doxorubicin was given at a concentration of 0.5 mg/ml, which corresponds to 1 mg/kg for a 25 g mouse with a tumor of 120 mm^3, and 1 mg/kg for a 20 g mouse with a tumor of 100 mm^3. For 3 mg/kg dose (G,H), a solution of 1.5 mg/ml was used and same volumes was injected. For the 6 mg/kg dose (I,J) the commercial solution of 2 mg/ml will be used and 75 ul was injected for tumor with a volume of 120 mm^3.
The same formula as for doxorubicin was used V=50 ul×(TV/120).
RNA was extracted from […] snap frozen tumors using the RNEasy Microarray Tissue Mini kit from Qiagen following the manufacturer's instructions. As tumors contained Doxorubicin and powderizing them could expose personnel to harmful substances, the RNA was extracted in a closed system using the GentleMACS dissociator and M Tubes. Purity and concentration of RNA was measured using Nanodrop. cDNA was synthesized from RNA using the RT^2 First Strand kit (Qiagen) according to the manufacturer's instructions. cDNA was mixed with RT^2 SYBR Green Mastermix (Qiagen) and loaded into RT Profiler™ PCR Array Mouse Type I Interferon Response or RT^2 Profiler™ PCR Array Mouse Epithelial to Mesenchymal Transition (EMT), analyzing the expression of 84 genes listed in Tables 9 and 10. The plates were analyzed using Light Cycler 480 (Roche) and data were analyzed using the Qiagen Data Analysis Centre and Graph Pad (Prism).
Quiagen RT^2 software was used to analyze all the samples from different groups. To be able to generate heatmaps and graph on fold change including error bars, the data have been analyzed manually with Graph Pad (Prism) when the Quiagen RT^2 software gave significant results between the different groups. For IFN type 1 response 1 mg/kg 48, 72 h and 3 mg/kg 48 h, were analyzed manually. For EMT, 1 mg/kg 48, 72 h, 3 mg/kg 72 h. When the data have been analyzed manually, the results are presented as histograms of mRNA fold changes. For the time points and doses analyzed by the software, the results are presented as tables.
GraphPadPrism was used to generate the heat maps, graphs with mRNA fold change, and to make the statistics. Multiple TTests, paired were performed on ΔΔ Ct values.
The expression of type I IFN related genes (ISG) was assessed in tumors collected 24, 48 and 72 hours after i.t. doxorubicin treatment. 3 groups were compared per timepoint: bemcentinib (bern), doxorubicin only (dox) and doxorubicin combined with bemcentinib (doxbern), the fold changes were compared with the control groups injected with PBS, and the fold change was 1 for the control groups.

[4] = system: 4T1 mammary carcinoma cells; test: Tumor growth, 4T1 model (Example 2); design: species or system Balb/c mice; settings: short in vivo study, single i.t. injection day 15
Description: Tumor growth was measured with a digital handheld caliper twice weekly from emergence of tumor and until the day of euthanasia

43 mouse cytokines = test: Plasma cytokines, ProcartaPlex Multiplex Immunoassay (Luminex) (Example 2); assay type: in vivo, Balb/c mice; settings: DMXAA, 48 h post injection, treated groups
Description: The manufacturer user guide was followed. The samples were analyzed by (MAGPIX) and the results were obtained as concentration in pg/ml of mouse plasma. At least 3 samples per group, 4 for many, were analyzed.

Yumm1.7 cells = test: qRTPCR of IFN related genes in Yumm1.7 cells in vitro (Example 4); assay type: cell-based, mouse; settings: Yumm1.7 cells; DMXAA treatment; 13 ISG tested
4T1 cells = test: qRTPCR of IFN related genes in 4T1 cells in vitro (Example 4); assay type: cell-based, mouse; settings: with or without bemcentinib
[5] = in the presence of bemcentinib, read-out: IC50 with bem
[6] = Mus musculus, LL/2, read-out: IC50 without bem

N.N.[Cl][Pt][Cl] [Cisplatin, cisplatin]
ISGs upregulated compared to control (number) (LL2 cells [1]; cisplatin 5 uM, 48 hours): 11
IC50 (LL2 cells [2]; [5]): 4.65 µM
IC50 (LL2 cells [2]; read-out: IC50 without bem): 6.19 µM

Cc1ccc2c(=O)c3cccc(CC(=O)O)c3oc2c1C [DMXAA, 5,6-Dimethylxanthenone-4-acetic Acid]
ISG significantly upregulated compared to control (number) ([3]; 24 hours after DMXAA i.t. treatment): 8
ISG upregulated (number) ([3]; 48 hours after DMXAA injection): 1
Tumor growth [4]: decreased tumor growth
Cytokines with different concentration compared with controls (number) (43 mouse cytokines): 8
ISG upregulated (number) (Yumm1.7 cells): 4
ISG upregulated compared to control (number) (LL2 cells [1]; DMXAA 25 ug/ml, 48 hours): 20
IFN response after DMXAA stimulation (4T1 cells): No significant changes
IC50 without bem (LL2 cells [2]): No effect
IC50 with bem (LL2 cells [2]; in the presence of bemcentinib): No effect

CC(=O)O[C@@]12CO[C@@H]1C[C@H](O)[C@@]1(C)C(=O)[C@H](O)C3=C(C)[C@@H](OC(=O)[C@H](O)[C@@H](NC(=O)OC(C)(C)C)c4ccccc4)C[C@@](O)([C@@H](OC(=O)c4ccccc4)[C@H]21)C3(C)C [Docetaxel, docetaxel]
ISG significantly upregulated compared to control (number) (LL2 cells [1]; docetaxel 5 nM): 2
IC50 (LL2 cells [2]; [6]): 0.0141 µM
IC50 (LL2 cells [2]; [5]): 0.00726 µM

CCC1=C[C@@H]2CN(C1)Cc1c([nH]c3ccccc13)[C@@](C(=O)OC)(c1cc3c(cc1OC)N(C)[C@H]1[C@@](O)(C(=O)OC)[C@H](OC(C)=O)[C@]4(CC)C=CCN5CC[C@]31[C@@H]54)C2 [Navelbine, vinorelbine]
ISG upregulated (number) (LL2 cells [1]; navelbine 1 nM, 48 hours): Four
IC50 (LL2 cells [2]; [6]): 0.0101 µM
IC50 (LL2 cells [2]; [5]): 0.000752 µM
